Here are results for 16 molecules from patent US12435080B2, “sGC stimulators” (Tisento Therapeutics Inc., priority 2016, dated 2025).

The structures appear in SMILES notation. Where two headings read alike, the source gives them in different places. Some results are limits rather than exact numbers.

In this assay the target is T1, sGC enzyme (Homo sapiens, UniProt Q02108+Q02153).
T1 construct: incorporated into these cells detect cGMP formed by the compounds stimulating the sGC enzyme; host or cells: HEK293 cells stably expressing GloSensor 40F cGMP biosensor
T1 sequence (Q02153 1-619): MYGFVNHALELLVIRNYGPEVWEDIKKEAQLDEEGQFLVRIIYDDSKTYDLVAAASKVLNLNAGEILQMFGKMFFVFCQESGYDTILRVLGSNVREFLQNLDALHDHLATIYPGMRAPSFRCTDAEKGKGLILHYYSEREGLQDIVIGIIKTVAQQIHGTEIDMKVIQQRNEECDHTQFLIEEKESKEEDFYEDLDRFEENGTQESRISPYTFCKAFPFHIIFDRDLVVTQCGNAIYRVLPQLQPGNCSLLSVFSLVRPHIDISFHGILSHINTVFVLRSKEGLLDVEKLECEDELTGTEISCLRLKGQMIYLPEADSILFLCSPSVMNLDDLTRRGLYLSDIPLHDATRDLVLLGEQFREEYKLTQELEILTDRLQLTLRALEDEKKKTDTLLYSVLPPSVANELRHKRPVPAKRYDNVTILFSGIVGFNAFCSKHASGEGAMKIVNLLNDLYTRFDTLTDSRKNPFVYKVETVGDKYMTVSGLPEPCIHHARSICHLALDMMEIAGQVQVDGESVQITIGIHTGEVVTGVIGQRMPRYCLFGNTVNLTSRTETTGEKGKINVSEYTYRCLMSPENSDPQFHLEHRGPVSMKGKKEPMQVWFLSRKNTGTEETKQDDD
T1 sequence (Q02108 1-690): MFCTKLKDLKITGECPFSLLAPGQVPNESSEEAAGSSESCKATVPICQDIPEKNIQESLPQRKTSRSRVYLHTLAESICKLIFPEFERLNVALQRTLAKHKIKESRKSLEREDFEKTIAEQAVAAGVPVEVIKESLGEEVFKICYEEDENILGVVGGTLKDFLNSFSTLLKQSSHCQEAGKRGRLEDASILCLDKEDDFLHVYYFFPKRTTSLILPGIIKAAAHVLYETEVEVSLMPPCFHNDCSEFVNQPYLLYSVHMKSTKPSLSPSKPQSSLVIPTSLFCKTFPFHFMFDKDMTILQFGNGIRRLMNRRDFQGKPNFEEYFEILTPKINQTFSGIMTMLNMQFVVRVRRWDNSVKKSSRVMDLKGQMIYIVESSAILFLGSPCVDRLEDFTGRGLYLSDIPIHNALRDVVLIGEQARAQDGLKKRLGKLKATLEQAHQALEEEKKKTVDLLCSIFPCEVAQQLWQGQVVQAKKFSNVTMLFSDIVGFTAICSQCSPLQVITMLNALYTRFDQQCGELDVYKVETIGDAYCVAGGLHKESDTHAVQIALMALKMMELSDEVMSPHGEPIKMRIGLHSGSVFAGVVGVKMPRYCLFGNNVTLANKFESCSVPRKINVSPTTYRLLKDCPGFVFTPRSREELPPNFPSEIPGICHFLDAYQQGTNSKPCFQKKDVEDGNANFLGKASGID
The assay can be described thus: cGMP GloSensor cell-based assay, 384-well format. Particulars: HEK293 cells expressing GloSensor 40F cGMP, 10 μM DETA-NONOate, normalized to 30 μM Compound Y. An excerpt:
Human embryonic kidney cells (HEK293) cells expressing GloSensor™ 40F cGMP (Part No: CS182801, Promega) were used to evaluate the activity of test compounds. The luminescent biosensors (engineered luciferase) that were incorporated into these cells detect cGMP formed by the compounds stimulating the sGC enzyme and emit luminescence.
cGMP GloSensor cells were maintained in Dulbecco's Modification of Eagle's Medium (DMEM) supplemented with fetal bovine serum (FBS, 10% final) and hygromycine (200 ug/ml). […] Cells were incubated overnight at 37° C. in a humidified chamber with 5% CO2. The next day, medium was removed and cells were replaced with 40 ul/well of GloSensor™, 2 mM (Promega Cat No E1291). Cells were treated for 90 minutes at 25° C. to allow the substrate to equilibrate in the cells. […] For endpoint SAR screening, data were collected after 55 min incubation at room temperature.
Data were fit using a 4-parameter fit (log(agonist) vs. response—variable slope) using GraphPad Prism Software v.5. n=2 for all compounds. […] Compounds failing to elicit a minimum response of 50% are reported as >30 μM or ND.

Where [1] appears, read: compounds in Table IA, read-out: Glo-sensor AbsEC50.

`Fc1n[nH]c(-c2nn(Cc3ccccc3F)c3ncccc23)n1` [Compound I-45, 3-(3-fluoro-1H-1,2,4-triazol-5-yl)-1-(2-fluorobenzyl)-1H-pyrazolo[3,4-b]pyridine]: the EC50 under setting [1] was in the range of 100 to 1000 nM.

Take `CC(C)(C)c1n[nH]c(-c2nn(Cc3ccccc3F)c3ncccc23)n1` [Compound I-37, 3-(3-(tert-Butyl)-1H-1,2,4-triazol-5-yl)-1-(2-fluorobenzyl)-1H-pyrazolo[3,4-b]pyridine]: the EC50 under setting [1] was under 100 nM.

For the molecule `CN(C)c1n[nH]c(-c2nn(Cc3ccccc3F)c3ncccc23)n1` [Compound I-90], under setting [1], the EC50 fell in the range of 100 to 1000 nM.

Consider `COCc1n[nH]c(-c2nn(Cc3ccccc3F)c3ncccc23)n1` [Compound I-112, 1-(2-Fluorobenzyl)-3-(3-(methoxymethyl)-1H-1,2,4-triazol-5-yl)-1H-pyrazolo[3,4-b]pyridine], for which, under setting [1], the EC50 is 100 to 1000 nM.

Consider `Fc1cccn2c(-c3nc(C(F)(F)F)n[nH]3)nc(Cc3cncnc3)c12` [Compound I-15, 8-Fluoro-1-(pyrimidin-5-ylmethyl)-3-(3-(trifluoromethyl)-1H-1,2,4-triazol-5-yl)imidazo[1,5-a]pyridine], for which the EC50 (compounds in Table IB, read-out: Glo-sensor Abs EC50) is under 100 nM.

Take `Fc1ccccc1Cn1nc(-c2nc(N3CCOCC3)n[nH]2)c2cccnc21` [Compound I-57]: the EC50 under setting [1] was 100 to 1000 nM.

Regarding `Fc1ccc(F)c(Cn2nc(-c3nc(C(F)(F)F)n[nH]3)c3cccnc32)c1` [Compound I-14, 1-(2,5-Difluorobenzyl)-3-(3-(trifluoromethyl)-1H-1,2,4-triazol-5-yl)-1H-pyrazolo[3,4-b]pyridine], under setting [1], the EC50 was under 100 nM.

For the molecule `COc1n[nH]c(-c2nn(Cc3ccccc3F)c3ncccc23)n1` [Compound I-82, 1-(2-fluorobenzyl)-3-(3-methoxy-1H-1,2,4-triazol-5-yl)-1H-pyrazolo[3,4-b]pyridine], under setting [1], the EC50 is 100 to 1000 nM.

Turning to `Fc1ccccc1Cn1nc(-c2nc(C3(c4ccccc4)CC3)n[nH]2)c2cccnc21` [Compound I-81, 1-(2-Fluorobenzyl)-3-(3-(1-phenylcyclopropyl)-1H-1,2,4-triazol-5-yl)-1H-pyrazolo[3,4-b]pyridine], the EC50 under setting [1] is over 1000 nM.

Take `Fc1cccc(Cn2nc(-c3nc(C(F)(F)F)n[nH]3)c3cccnc32)c1` [Compound I-52, 1-(3-Fluorobenzyl)-3-(3-(trifluoromethyl)-1H-1,2,4-triazol-5-yl)-1H-pyrazolo[3,4-b]pyridine]: the EC50 under setting [1] was under 100 nM.

Turning to `Fc1cccc(Cc2nn(-c3nc(C(F)(F)F)n[nH]3)c3cccnc23)c1` [Compound I-120, 3-(3-Fluorobenzyl)-1-(3-(trifluoromethyl)-1H-1,2,4-triazol-5-yl)-1H-pyrazolo[4,3-b]pyridine], under setting [1], the EC50 lay in the range of 100 to 1000 nM.

Take `O=C(CC(F)(F)F)Nc1n[nH]c(-c2nn(Cc3ccccc3F)c3ncccc23)n1` [Compound I-126]: under setting [1], the EC50 is over 1000 nM.

Consider `CC(=O)NCc1n[nH]c(-c2nn(Cc3ccccc3F)c3ncccc23)n1` [Compound I-124, N-((5-(1-(2-fluorobenzyl)-1H-pyrazolo[3,4-b]pyridin-3-yl)-1H-1,2,4-triazol-3-yl)methyl)acetamide], for which the EC50 under setting [1] lay in the range of 100 to 1000 nM.

Regarding `Fc1ccccc1Cn1nc(-c2nc(C(F)(F)F)n[nH]2)c2nccnc21` [Compound I-98, 1-(2-Fluorobenzyl)-3-(3-(trifluoromethyl)-1H-1,2,4-triazol-5-yl)-1H-pyrazolo[3,4-b]pyrazine], the EC50 under setting [1] was over 1000 nM.

Turning to `CC1(c2n[nH]c(-c3nn(Cc4ccccc4F)c4ncccc34)n2)CC1(F)F` (stereo not shown) [Compound I-87, 3-(3-(2,2-Difluoro-1-methylcyclopropyl)-1H-1,2,4-triazol-5-yl)-1-(2-fluorobenzyl)-1H-pyrazolo[3,4-b]pyridine], the EC50 under setting [1] is 100 to 1000 nM.

With `CC(F)(F)c1n[nH]c(-c2nn(Cc3ccccc3F)c3ncccc23)n1` [Compound I-36, 3-(3-(1,1-difluoroethyl)-1H-1,2,4-triazol-5-yl)-1-(2-fluorobenzyl)-1H-pyrazolo[3,4-b]pyridine], the EC50 under setting [1] was under 100 nM.
